Target: T1, recombinant human CCR1 (Homo sapiens, UniProt P32246)
T1 construct: expressed in transfected cells; membranes prepared from them
T1 sequence (P32246 1-355): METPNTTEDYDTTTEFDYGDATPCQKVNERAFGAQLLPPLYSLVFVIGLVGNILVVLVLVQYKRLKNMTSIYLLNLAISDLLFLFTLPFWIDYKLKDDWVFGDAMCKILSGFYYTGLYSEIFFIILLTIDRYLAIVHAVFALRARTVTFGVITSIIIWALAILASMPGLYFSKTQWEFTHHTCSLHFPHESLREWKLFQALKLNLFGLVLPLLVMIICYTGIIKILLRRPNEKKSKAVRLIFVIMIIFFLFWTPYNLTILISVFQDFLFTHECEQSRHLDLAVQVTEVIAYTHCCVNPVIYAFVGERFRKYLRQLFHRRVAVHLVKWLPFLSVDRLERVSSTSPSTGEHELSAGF
Experiment: Human CCR1 binding assay ([125I] MIP-1α displacement, HEK-CCR1 membranes)
Details: HEK293 membranes expressing recombinant human CCR1; 33 pM [125I] MIP-1α
Description: HEK293 cells, from ECACC, stably expressing recombinant human CCR1 (HEK-CCR1) were used to prepare cell membranes containing CCR1. The membranes were stored at −70° C. The concentration of membranes of each batch was adjusted to 10% specific binding of 33 pM [^125I] MIP-1α.
100 μL of HEK-CCR1 membranes diluted in assay buffer pH 7.4 (137 mM NaCl (Merck, Cat No 1.06404), 5.7 mM Glucose (Sigma, Cat No G5400), 2.7 mM KCl (Sigma, Cat No P-9333), 0.36 mM NaH2PO4×H2O (Merck, Cat No 1.06346), 10 mM HEPES (Sigma, Cat No H3375), 0.1% (w/v) Gelatine (Sigma, Cat No G2625)) with the addition of 17500 units/L Bacitracin (Sigma, Cat No B1025) were added to each well of the 96 well filter plate (0.45 μm opaque Millipore cat no MHVB N4550). […] 12 μl assay buffer with 10% DMSO was added to certain wells (without compound) to detect maximal binding (B0).
12 μL [^125I] MIP-1α, diluted in assay buffer to a final concentration in the wells of 33 pM, was added to all wells. The plates with lid were then incubated for 1.5 hrs at room temperature. After incubation the wells were emptied by vacuum filtration (MultiScreen Resist Vacuum Manifold system, Millipore) and washed once with 200 μl assay buffer. After the wash, all wells received an addition of 50 μL of scintillation fluid (OptiPhase “Supermix”, Wallac Oy, Turko, Finland). Bound [^125I] MIP-1: was measured using a Wallac Trilux 1450 MicroBeta counter. […]

`CC(=O)Nc1ccc(O)cc1OC[C@@](C)(O)CNC1CCN(Cc2ccc(Cl)cc2)CC1` [N-{2-[((2S)-3-{[1-(4-chlorobenzyl)piperidin-4-yl]amino}-2-hydroxy-2-methylpropyl)oxy]-4-hydroxyphenyl}acetamide ditrifluoroacetate] was tested, and the IC50 was < 50 nM.

Reference: patent US20080176902A1, “Salt III” (ASTRAZENECA AB, priority 2005, published 2008)
